Data from patent publication EP3722296B1, “DIHYDRONAPHTHYRIDINES AND RELATED COMPOUNDS USEFUL AS KINASE INHIBITORS FOR THE TREATMENT OF PROLIFERATIVE DISEASES” (Deciphera Pharmaceuticals, LLC, priority 2012, dated 2013).

Assays:
[1] = test system: Phospho-KIT (Tyr719); experiment: GIST430 KIT Western Blot; type: cell-based; settings: GIST430 cells, 4 hours, serum-free medium; read-out: pKIT suppression by western blot analysi GIST430
Description: (§1) GIST48, GIST430, and GIST882 cells were obtained from J. Fletcher (Brigham and Women's Hospital, Boston, MA). GIST T1 cells were obtained from B. Rubin (Cleveland Clinic, Cleveland, OH) and Professor Takahiro Taguchi (Kochi Medical School, Nankoku, Kochi, Japan). […] GIST430 cells were grown in Ham's F10 medium supplemented with 15% characterized fetal bovine serum (Invitrogen, Carlsbad, CA), 30 mg/L bovine pituitary extract (BD Biosciences, San Jose, CA), 0.5% Mito+ serum extender (BD Biosciences, San Jose, CA), 1 unit/mL penicillin G, 1 µg/ml streptomycin, and 0.29 mg/mL L-glutamine at 37 °C, 5%CO2, 95% humidity. GIST T1 cells were grown in DMEM medium supplemented with 10% characterized fetal bovine serum (Invitrogen, Carlsbad, CA), 1 unit/mL penicillin G, 1 µg/ml streptomycin, and 0.29 mg/mL L-glutamine at 37 °C, 5% CO2, and 95% humidity.
(§2) One hundred fifty thousand cells were added per well in a 24-well tissue-culture treated plate. […] Medium was aspirated, cells were washed with PBS, and serum-free Ham's F10 medium was added. […] Cells were washed with PBS, then lysed. Cell lysates were separated by SDS-PAGE and transferred to PVDF. Phospho-KIT (Tyr719) was detected using an antibody from Cell Signaling Technology (Beverly, MA), ECL Plus detection reagent (GE Healthcare, Piscataway, NJ) and a Molecular Devices Storm 840 phosphorimager in fluorescence mode. Blots were stripped and probed for total KIT using an antibody from Santa Cruz Biotech (Santa Cruz, CA). IC50 values were calculated using Prism software (Graphpad, San Diego, CA).

[2] = test system: Phospho-KIT (Tyr719); experiment: GIST48 KIT Western Blot; type: cell-based; settings: GIST48 cells, 4 hours, serum-free medium; read-out: pKIT suppression by western blot analysi GIST48
Description: as §1
as §2, with “Two” for “One”, “RPMI1640” for “Ham's F10”

[3] = test system: GIST T1 cells; experiment: GIST T1 Cell Proliferation Assay; type: cell-based; settings: Homo sapiens, GISTT1, 72 h, 68 hours + 4 hours resazurin
Description: GIST48, GIST430, and GIST882 cells were obtained from J. Fletcher (Brigham and Women's Hospital, Boston, MA). GIST T1 cells were obtained from B. Rubin (Cleveland Clinic, Cleveland, OH) and Professor Takahiro Taguchi (Kochi Medical School, Nankoku, Kochi, Japan). Briefly, GIST48 and GIST 882 cells were grown in RPMI 1640 medium supplemented with 15% characterized fetal bovine serum (Invitrogen, Carlsbad, CA), 1 unit/mL penicillin G, 1 µg/ml streptomycin, and 0.29 mg/mL L-glutamine at 37 °C, 5% CO2, and 95% humidity. GIST430 cells were grown in Ham's F10 medium supplemented with 15% characterized fetal bovine serum (Invitrogen, Carlsbad, CA), 30 mg/L bovine pituitary extract (BD Biosciences, San Jose, CA), 0.5% Mito+ serum extender (BD Biosciences, San Jose, CA), 1 unit/mL penicillin G, 1 µg/ml streptomycin, and 0.29 mg/mL L-glutamine at 37 °C, 5%CO2, 95% humidity. GIST T1 cells were grown in DMEM medium supplemented with 10% characterized fetal bovine serum (Invitrogen, Carlsbad, CA), 1 unit/mL penicillin G, 1 µg/ml streptomycin, and 0.29 mg/mL L-glutamine at 37 °C, 5% CO2, and 95% humidity.
A serial dilution of test compound was dispensed into a 384-well black clear bottom plate (Corning, Corning, NY). One thousand two-hundred fifty cells were added per well in 50 µL complete growth medium. Plates were incubated for 68 hours at 37 °C, 5% CO2, 95% humidity. At the end of the incubation period 10 µL of a 440 µM solution of resazurin (Sigma, St. Louis, MO) in PBS was added to each well and incubated for an additional 4 hours at 37 °C, 5% CO2, 95% humidity. Plates were read on a Synergy2 reader (Biotek, Winooski, VT) using an excitation of 540 nm and an emission of 600 nm.

[4] = molecular target: T1, c-KIT V654A kinase (Homo sapiens, UniProt P10721, V654A); experiment: c-KIT V654A Kinase Assay; type: biochemical; settings: enzymatic assay, ATP 200 µM
T1 construct: residues T544-V976 with N-terminal GST fusion; purchased deCODE Biostructures
In short: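 Kinase activity tracked by coupled NADH consumption, monitored continuously at 340 nm over 6 h at 30 °C after serially diluted compound was mixed in to start inhibition. Enzyme used was a GST-fused, N-terminally tagged cKIT T544–V976 construct with a TEV cleavage site.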

[5] = molecular target: T2, c-KIT D816H kinase (Homo sapiens, UniProt P10721, D816H); experiment: c-KIT D816H Kinase Assay; type: biochemical; settings: enzymatic assay, ATP 200 µM
T2 construct: The construct contains residues T544-V976 of cKit; GST (N); TEV cleavage site (internal); purchased deCODE Biostructures
In short: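 Mutant cKit enzyme, expressed as a GST-fusion construct carrying an N-terminal tag and TEV site, was mixed with serially diluted compound to start reactions. Activity tracked via NADH consumption, read continuously at 340 nm over 6 hours at 30 °C.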

[6] = molecular target: T3, c-KIT D816V kinase (Homo sapiens, UniProt P10721, D816V); experiment: c-KIT D816V kinase Assay; type: biochemical; settings: enzymatic assay, ATP 200 uM
T3 construct: residues T544-V976 with N-terminal GST fusion; purchased deCODE Biostructures
In short: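 Coupled assay in which NADH oxidation was tracked as decreasing absorbance at 340 nm, continuously for 5 hours at 30 °C after adding serially diluted compound. Enzyme: cKit residues T544-V976 with N-terminal tag, GST fusion and TEV cleavage site.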

[7] = molecular target: T4, c-KIT T670I kinase (Homo sapiens, UniProt P10721, T670I); experiment: c-KIT T670I kinase assay; type: biochemical; settings: enzymatic assay
T4 construct: The construct contains residues T544-V976 of cKit; GST (N); TEV cleavage site (internal); purchased deCODE Biostructures
In short: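 Enzyme: GST-fused, N-terminally tagged cKit bearing T670I, with TEV cleavage site. Reaction started by mixing compound dilutions with reaction mix; activity read continuously over 5 h at 30 °C as loss of 340 nm absorbance from NADH consumption.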

[8] = molecular target: c-KIT kinase (Homo sapiens, UniProt P10721); experiment: c-KIT kinase Assay; type: biochemical; parameters: cKIT residues T544-V976; GST (N); TEV cleavage site (internal); purchased deCODE Biostructures; settings: enzymatic assay, ATP 200 µM; read-out: KIT (wt) IC50
In short: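 This continuous spectrophotometric assay tracked c-KIT kinase turnover through NADH consumption at 340 nm, recorded for 2 hours at 30 °C. The enzyme construct from deCODE Biostructures carried an N-terminal tag, a GST-fusion sequence and a TEV cleavage site. Percent inhibition came from reaction rates over 0 to 1 h relative to a no-compound control, and IC50 values were derived with GraphPad Prism.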

T1 sequence (P10721 544-976 V654A): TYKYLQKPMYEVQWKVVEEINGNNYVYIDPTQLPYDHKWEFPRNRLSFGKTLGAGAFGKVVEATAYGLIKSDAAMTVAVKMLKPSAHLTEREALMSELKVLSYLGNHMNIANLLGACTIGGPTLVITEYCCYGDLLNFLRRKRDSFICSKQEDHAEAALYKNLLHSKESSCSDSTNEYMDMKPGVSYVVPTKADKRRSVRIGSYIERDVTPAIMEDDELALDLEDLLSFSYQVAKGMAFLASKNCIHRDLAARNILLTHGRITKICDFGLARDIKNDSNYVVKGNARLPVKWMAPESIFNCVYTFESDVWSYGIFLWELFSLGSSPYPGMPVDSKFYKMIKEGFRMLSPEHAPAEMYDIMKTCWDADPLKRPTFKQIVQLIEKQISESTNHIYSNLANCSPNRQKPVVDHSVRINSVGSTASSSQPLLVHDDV
T4 sequence (P10721 544-976 T670I): as the sequence (P10721 544-976 V654A) above, with A111V, T127I counted along it
Chain of c-KIT kinase (P10721 544-976): as the sequence (P10721 544-976 V654A) above, with A111V counted along it
T3 sequence (P10721 544-976 D816V): as the sequence (P10721 544-976 V654A) above, with A111V, D273V counted along it
T2 sequence (P10721 544-976 D816H): as the sequence (P10721 544-976 V654A) above, with A111V, D273H counted along it

## CCn1c(=O)c(-c2cc(NC(=O)Nc3cccc(Cl)c3)c(F)cc2F)cc2cnc(NC)cc21 [Example 17, 1-(3-chlorophenyl)-3-(5-(1-ethyl-7-(methylamino)-2-oxo-1,2-dihydro-1,6-naphthyridin-3-yl)-2,4-difluorophenyl)urea]
[1]
  IC50: 10 to 100 nM
[2]
  IC50: 10 to 100 nM

## CCn1c(=O)c(-c2cc(NC(=O)Nc3ccccc3)c(F)cc2Cl)cc2cnc(N)cc21 [Example 21, 1-(5-(7-amino-1-ethyl-2-oxo-1,2-dihydro-1,6-naphthyridin-3-yl)-4-chloro-2-fluorophenyl)-3-phenylurea]
[1]
  IC50: < 10 nM
[2]
  IC50: 10 to 100 nM
[3]
  IC50: < 10 nM

## CCn1c(=O)c(-c2cc(NC(=O)Nc3ccccc3)c(F)cc2Cl)cc2cnc(NCCCN(C)C)cc21 [Example 30, 1-(4-chloro-5-(7-(3-(dimethylamino)propylamino)-1-ethyl-2-oxo-1,2-dihydro-1,6-naphthyridin-3-yl)-2-fluorophenyl)-3-phenylurea]
[1]
  IC50: 10 to 100 nM
[2]
  IC50: 100 to 1000 nM

## CNc1cc2c(cn1)cc(-c1cc(NC(=O)Nc3cccc(F)c3)c(F)cc1C)c(=O)n2C(C)C [Example 41, 1-(2-fluoro-5-(1-isopropyl-7-(methylamino)-2-oxo-1,2-dihydro-1,6-naphthyridin-3-yl)-4-methylphenyl)-3-(3-fluorophenyl)urea]
[4]
  IC50: 10 to 100 nM
[5]
  IC50: < 10 nM
[6]
  IC50: 10 to 100 nM
[7]
  IC50: > 1000 nM
[1]
  IC50: 10 to 100 nM
[2]
  IC50: 100 to 1000 nM
[8]
  IC50: < 10 nM

## CCn1c(=O)c(-c2cc(NC(=O)Nc3ccccc3)c(F)cc2Br)cc2cnc(NC(C)=O)cc21 [Example 53, 1-(5-(7-acetamido-1-ethyl-2-oxo-1,2-dihydro-1,6-naphthyridin-3-yl)-4-bromo-2-fluorophenyl)-3-phenylurea]
[1]
  IC50: < 10 nM
[2]
  IC50: 100 to 1000 nM
[3]
  IC50: < 10 nM

## CCn1c(=O)c(-c2cc(NC(=O)Nc3cc(F)cc(F)c3)c(F)cc2F)cc2cnc(NC)cc21 [Example 63, 1-(3,5-difluorophenyl)-3-(5-(1-ethyl-7-(methylamino)-2-oxo-1,2-dihydro-1,6-naphthyridin-3-yl)-2,4-difluorophenyl)urea]
[4]
  IC50: < 10 nM
[6]
  IC50: 10 to 100 nM
[7]
  IC50: 10 to 100 nM
[1]
  IC50: 10 to 100 nM
[2]
  IC50: 100 to 1000 nM
[3]
  IC50: < 10 nM
[8]
  IC50: < 10 nM

## CCn1c(=O)c(-c2cc(NC(=O)Nc3ccccc3)c(F)cc2F)cc2cnc(NC(C)=O)cc21 [Example 66, 1-(5-(7-acetamido-1-ethyl-2-oxo-1,2-dihydro-1,6-naphthyridin-3-yl)-2,4-difluorophenyl)-3-phenylurea]
[1]
  IC50: 10 to 100 nM
[2]
  IC50: 100 to 1000 nM
[3]
  IC50: < 10 nM

## CCn1c(=O)c(-c2cc(NC(=O)Nc3cc(F)ccc3F)c(F)cc2Cl)cc2cnc(NC)cc21 [Example 68, 1-(4-chloro-5-(1-ethyl-7-(methylamino)-2-oxo-1,2-dihydro-1,6-naphthyridin-3-yl)-2-fluorophenyl)-3-(2,5-difluorophenyl)urea]
[4]
  IC50: 10 to 100 nM
[6]
  IC50: 10 to 100 nM
[7]
  IC50: 10 to 100 nM
[1]
  IC50: 10 to 100 nM
[2]
  IC50: 100 to 1000 nM
[3]
  IC50: < 10 nM
[8]
  IC50: < 10 nM

## CCn1c(=O)c(-c2cc(NC(=O)Nc3cccc(CN4CCN(C)CC4)c3)c(F)cc2Cl)cc2cnc(NC)cc21 [Example 79, 1-(4-chloro-5-(1-ethyl-7-(methylamino)-2-oxo-1,2-dihydro-1,6-naphthyridin-3-yl)-2-fluorophenyl)-3-(3-((4-methylpiperazin-1-yl)methyl)phenyl)urea]
[1]
  IC50: 10 to 100 nM
[2]
  IC50: 10 to 100 nM
[3]
  IC50: < 10 nM

## CCn1c(=O)c(-c2cc(NC(=O)Nc3cc(F)cc(CN4CCN(C)CC4)c3)c(F)cc2Cl)cc2cnc(NC)cc21 [Example 88, 1-(4-chloro-5-(1-ethyl-7-(methylamino)-2-oxo-1,2-dihydro-1,6-naphthyridin-3-yl)-2-fluorophenyl)-3-(3-fluoro-5-((4-methylpiperazin-1-yl)methyl)phenyl)urea]
[1]
  IC50: 10 to 100 nM
[2]
  IC50: 10 to 100 nM
[3]
  IC50: < 10 nM

## CCn1c(=O)c(-c2cc(NC(=O)Nc3cc(F)cc(F)c3)c(F)cc2C)cc2cnc(NC(=O)N(C)C)cc21 [Example 108, 3-(3-(5-(3-(3,5-difluorophenyl)ureido)-4-fluoro-2-methylphenyl)-1-ethyl-2-oxo-1,2-dihydro-1,6-naphthyridin-7-yl)-1,1-dimethylurea]
[4]
  IC50: 100 to 1000 nM
[5]
  IC50: 10 to 100 nM
[6]
  IC50: 10 to 100 nM
[7]
  IC50: 10 to 100 nM
[1]
  IC50: 10 to 100 nM
[2]
  IC50: 100 to 1000 nM
[8]
  IC50: 10 to 100 nM
